Measurements reported in patent publication US8609667B2, “E-type phenyl acrylic ester compounds containing substituted anilino pyrimidine group and uses thereof” (Sinochem Corporation, priority 2009, dated 2013).
Like-named read-outs stand apart in the source and are kept apart here.

Key:
Assay type in all cases: in vivo
[1] = tested on: adults of Tetranychus cinnabarinus; assay: Acaricidal activity against adults in greenhouse (spray on broadbean shoots, mortality after 72 hrs); conditions: for control against adults of Tetranychus cinnabarinus: spray, 72 hrs; for mortality at 0.625 µg/mL / mortality at 1.25 µg/mL / mortality at 2.5 µg/mL / mortality at 5 µg/mL / mortality at 10 µg/mL / mortality at 40 µg/mL: Tetranychus cinnabarinus, read-out: mortalities of adults of Tetranychus cinnabarinus (%)
Procedure: (§1) The activity determinations of compounds of the present invention against adults, nymphs and eggs of Tetranychus cinnabarinus were carried out in greenhouse by the following procedures:
The activity determination against adults in greenhouse: the compounds were weighed and dissolved in acetone to obtain mother liquid, and then the mother liquid was diluted to required concentration with placed running water containing 0.1% of Tween 80. Broadbean shoots with two true leaves were used to inoculate adults of Tetranychus cinnabarinus which were counted, spraying treatment was performed by portable sprayer (DeVilbiss Atomizer M163), 3 replicates were set for each treatment. After treatment the broadbean shoots were maintained in standard observation room. Scores were conducted and mortalities were calculated after 72 hrs.

[2] = tested on: nymphs of Tetranychus cinnabarinus; assay: Acaricidal activity against nymphs in greenhouse (spray, mortality after 72 hrs)
Procedure: as §1
The activity determination against nymphs in greenhouse: broadbean shoots with two true leaves in pot were taken, ten healthy female adults of Tetranychus cinnabarinus were inoculated to the leaves, the adults were removed after 24 hrs and the eggs were cultivated into nymphs after 7-10 days. The nymphs were counted and then sprayed. 3 replicates were set for each treatment. And then were maintained in standard observation room. Scores were conducted and mortalities were calculated after 72 hrs.

[3] = tested on: eggs of Tetranychus cinnabarinus; assay: Activity against eggs in greenhouse (hatching inhibition rate); conditions: for hatching inhibition rate against eggs of Tetranychus cinnabarinus: dose 10 mg/L; for inhibition at 0.625 µg/mL / inhibition at 2.5 µg/mL / inhibition at 10 µg/mL: Tetranychus cinnabarinus, read-out: hatching inhibition rate against eggs (%)
Procedure: as §1
The activity determination against eggs in greenhouse: Broadbean shoots in pot with one true leaf retained were taken, ten healthy female adults of Tetranychus cinnabarinus were inoculated to the leaves, the adults were removed after 24 hrs and the eggs were counted and then sprayed. The treatment of test compounds and spaying method were the same as that of the activity determination in greenhouse against adults. Once eggs of blank control were all hatched after 5 days, unhatched eggs in each treatment were investigated and the hatching inhibition rate were calculated.

[4] = tested on: citrus red mite; assay: Field trial against citrus red mite (Guilin, China); conditions: 48 mg/L (24% SC)
Procedure: Field Trial Against Citrus Red Mite (Guilin, China)
The trial was carried out in a 2-year-old Shatang orange orchard in Chaotian town lingchuan county guilin city, trifoliate orange trees were selected as stocks, the intervals between two plants was 1.5×2.5 m, the average height was 1.45 m and the crown width was 1.30 m. Two trees were selected in each plot, with random arrangement and 4 replications. Compound 9 (15% SC) was set at two different doses (100 mg/L and 25 mg/L), and spirodiclofen (24% SC) was set at one dose (48 mg/L). Matabi Supergreen 16 Knapsack Sprayer 16 Liter was used to spray evenly with 2 L of spaying volume for each plant. The plants were treated once on 30 Oct. 2009, at that time, adults, nymphs and eggs of citrus red mite all existed, with adults/eggs=1/1.27. During the day the plants were treated, and the weather was good with the average temperature at 23° C. The first three days after treatment were all clear days. The number of mites was investigated before treatment and on the 1st, 3rd, 10th, 15th, 20th and 30th day after treatment respectively. Two trees of each plot were investigated according to the five directions of the tree crown (east, south, west, north and central), 5 leaves in each direction were investigated to calculate the number of living mites, with 50 leaves each plot. The decline rate of mite population and corrected efficacy were calculated according to formulas below: The decline rate of mite population(%)=[(the average number of mite on each leaf before treatment−the average number of mite on each leaf after treatment)/the average number of mite on each leaf before treatment]×100. Corrected efficacy(%)=[(the decline rate of mite population in treated area−the decline rate of mite population in untreated area)/(100−the decline rate of mite population in untreated area)]×100.

CO/C=C(/C(=O)OC)c1ccccc1COc1nc(Nc2ccccc2)nc(C(F)(F)F)c1C [Compound 84]
control against adults of Tetranychus cinnabarinus ([1]; dose 100 mg/L): 100%

CO/C=C(/C(=O)OC)c1ccccc1COc1nc(Nc2ccccc2Cl)nc(C(F)(F)F)c1C [Compound 82]
control against adults of Tetranychus cinnabarinus ([1]; dose 100 mg/L): 100%

CO/C=C(/C(=O)OC)c1ccccc1COc1cc(C(F)(F)F)nc(Nc2ccc(F)c(F)c2F)n1 [Compound 15]
control against adults of Tetranychus cinnabarinus ([1]; dose 0.31 mg/L): more than 75%
control against adults of Tetranychus cinnabarinus ([1]; dose 0.625 mg/L): 95%
control against adults of Tetranychus cinnabarinus ([1]; dose 5 mg/L): 100%
control against adults of Tetranychus cinnabarinus ([1]; dose 10 mg/L): 100%
control against adults of Tetranychus cinnabarinus ([1]; dose 40 mg/L): 100%
control against adults of Tetranychus cinnabarinus ([1]; dose 100 mg/L): 100%
control against nymphs of Tetranychus cinnabarinus ([2]; dose 0.63 mg/L): 100%
control against nymphs of Tetranychus cinnabarinus ([2]; dose 2.5 mg/L): 100%
hatching inhibition rate against eggs of Tetranychus cinnabarinus [3]: 100%

CO/C=C(/C(=O)OC)c1ccccc1COc1cc(C(F)(F)F)nc(OC(C)C)n1 [Fluacrypyrim, reference compound]
mortality at 0.625 µg/mL [1]: 0%
mortality at 1.25 µg/mL [1]: 30%
mortality at 2.5 µg/mL [1]: 65%
mortality at 5 µg/mL [1]: 95%
mortality at 10 µg/mL [1]: 100%
mortality at 40 µg/mL [1]: 100%
inhibition at 0.625 µg/mL [3]: 0%
inhibition at 2.5 µg/mL [3]: 10%
inhibition at 10 µg/mL [3]: 95%

CO/C=C(/C(=O)OC)c1ccccc1COc1cc(C(F)(F)F)nc(Nc2ccc(F)cc2F)n1 [Compound 8]
control against adults of Tetranychus cinnabarinus ([1]; dose 5 mg/L): 100%
control against adults of Tetranychus cinnabarinus ([1]; dose 10 mg/L): 100%
control against adults of Tetranychus cinnabarinus ([1]; dose 40 mg/L): 100%
control against adults of Tetranychus cinnabarinus ([1]; dose 100 mg/L): 100%
control against nymphs of Tetranychus cinnabarinus ([2]; dose 0.63 mg/L): more than 75%
control against nymphs of Tetranychus cinnabarinus ([2]; dose 2.5 mg/L): more than 95%
hatching inhibition rate against eggs (%) ([3]; 0.625 mg/L, Table 8): 25%
hatching inhibition rate against eggs (%) ([3]; 2.5 mg/L, Table 8): 90%
hatching inhibition rate against eggs (%) ([3]; 10 mg/L, Table 8): 100%
hatching inhibition rate against eggs of Tetranychus cinnabarinus [3]: 100%

CO/C=C(/C(=O)OC)c1ccccc1COc1cc(C(F)(F)F)nc(Nc2cc(Cl)ccc2Cl)n1 [Compound 18]
control against adults of Tetranychus cinnabarinus ([1]; dose 40 mg/L): 100%
control against adults of Tetranychus cinnabarinus ([1]; dose 100 mg/L): 100%

CO/C=C(/C(=O)OC)c1ccccc1COc1cc(C(F)(F)F)nc(Nc2ccccc2)n1 [Contrast A, reference compound]
mortality at 0.625 µg/mL ([1]; 0.625 mg/L, Table 7): 0%
mortality at 1.25 µg/mL ([1]; 1.25 mg/L, Table 7): 10%
mortality at 2.5 µg/mL ([1]; 2.5 mg/L, Table 7): 30%
mortality at 5 µg/mL ([1]; 5 mg/L, Table 7): 60%
mortality at 10 µg/mL ([1]; 10 mg/L, Table 7): 90%
mortality at 40 µg/mL ([1]; 40 mg/L, Table 7): 100%
inhibition at 0.625 µg/mL ([3]; 0.625 mg/L, Table 8): 0%
inhibition at 2.5 µg/mL ([3]; 2.5 mg/L, Table 8): 10%
inhibition at 10 µg/mL ([3]; 10 mg/L, Table 8): 100%

CO/C=C(/C(=O)OC)c1ccccc1COc1cc(C(F)(F)F)nc(Nc2ccc(Cl)c(C)c2Cl)n1 [Compound 17]
control against adults of Tetranychus cinnabarinus ([1]; dose 5 mg/L): 100%
control against adults of Tetranychus cinnabarinus ([1]; dose 10 mg/L): 100%
control against adults of Tetranychus cinnabarinus ([1]; dose 40 mg/L): 100%
control against adults of Tetranychus cinnabarinus ([1]; dose 100 mg/L): 100%

CO/C=C(/C(=O)OC)c1ccccc1COc1nc(Nc2ccc(F)c(F)c2F)nc(C(F)(F)F)c1C [Compound 80]
control against adults of Tetranychus cinnabarinus ([1]; dose 40 mg/L): 100%
control against adults of Tetranychus cinnabarinus ([1]; dose 100 mg/L): 100%

CO/C=C(/C(=O)OC)c1ccccc1COc1cc(C(F)(F)F)nc(Nc2ccc(F)c(Cl)c2)n1 [Compound 13]
control against adults of Tetranychus cinnabarinus ([1]; dose 100 mg/L): 100%

CO/C=C(/C(=O)OC)c1ccccc1COc1nc(Nc2ccccc2)nc(C(F)(F)F)c1Cl [Compound 85]
control against adults of Tetranychus cinnabarinus ([1]; dose 100 mg/L): 100%

CO/C=C(/C(=O)OC)c1ccccc1COc1cc(C(F)(F)F)nc(N(C)C)n1 [Contrast B, reference compound]
mortality at 10 µg/mL ([1]; 10 mg/L, Table 7): 0%
mortality at 40 µg/mL ([1]; 40 mg/L, Table 7): 0%

CCC(C)(C)C(=O)OC1=C(c2ccc(Cl)cc2Cl)C(=O)OC12CCCCC2 [Spirodiclofen, reference compound]
hatching inhibition rate against eggs (%) ([3]; 0.625 mg/L, Table 8): 0%
hatching inhibition rate against eggs (%) ([3]; 2.5 mg/L, Table 8): 70%
hatching inhibition rate against eggs (%) ([3]; 10 mg/L, Table 8): 100%
Corrected efficacy (%) ([4]; the 1st day after treatment): 59%
Corrected efficacy (%) ([4]; the 3rd day after treatment): 72%
Corrected efficacy (%) ([4]; the 10th day after treatment): 75%
Corrected efficacy (%) ([4]; the 15th day after treatment): 76%
Corrected efficacy (%) ([4]; the 20th day after treatment): 83%
Corrected efficacy (%) ([4]; the 30th day after treatment): 82%

CO/C=C(/C(=O)OC)c1ccccc1COc1cc(C(F)(F)F)nc(Nc2cccc(C)c2)n1 [Compound 6]
control against adults of Tetranychus cinnabarinus ([1]; dose 40 mg/L): 100%
control against adults of Tetranychus cinnabarinus ([1]; dose 100 mg/L): 100%

CO/C=C(/C(=O)OC)c1ccccc1COc1nc(Nc2ccc(F)cc2F)nc(C(F)(F)F)c1C [Compound 79]
control against adults of Tetranychus cinnabarinus ([1]; dose 10 mg/L): 100%
control against adults of Tetranychus cinnabarinus ([1]; dose 40 mg/L): 100%
control against adults of Tetranychus cinnabarinus ([1]; dose 100 mg/L): 100%

CO/C=C(/C(=O)OC)c1ccccc1COc1cc(C(F)(F)F)nc(Nc2cccc(Cl)c2Cl)n1 [Contrast C]
inhibition at 0.625 µg/mL ([3]; 0.625 mg/L, Table 8): 0%
inhibition at 2.5 µg/mL ([3]; 2.5 mg/L, Table 8): 10%
inhibition at 10 µg/mL ([3]; 10 mg/L, Table 8): 100%

CO/C=C(/C(=O)OC)c1ccccc1COc1cc(C(F)(F)F)nc(Nc2ccc(Cl)cc2F)n1 [Compound 12]
control against adults of Tetranychus cinnabarinus ([1]; dose 5 mg/L): 100%
control against adults of Tetranychus cinnabarinus ([1]; dose 10 mg/L): 100%
control against adults of Tetranychus cinnabarinus ([1]; dose 40 mg/L): 100%
control against adults of Tetranychus cinnabarinus ([1]; dose 100 mg/L): 100%

CO/C=C(/C(=O)OC)c1ccccc1COc1cc(C(F)(F)F)nc(Nc2ccc(Cl)c(Cl)c2Cl)n1 [Compound 16]
control against adults of Tetranychus cinnabarinus ([1]; dose 5 mg/L): 100%
control against adults of Tetranychus cinnabarinus ([1]; dose 10 mg/L): 100%
control against adults of Tetranychus cinnabarinus ([1]; dose 40 mg/L): 100%
control against adults of Tetranychus cinnabarinus ([1]; dose 100 mg/L): 100%
hatching inhibition rate against eggs of Tetranychus cinnabarinus [3]: 100%

CO/C=C(/C(=O)OC)c1ccccc1COc1cc(C(F)(F)F)nc(Nc2ccccc2F)n1 [Compound 2]
control against adults of Tetranychus cinnabarinus ([1]; dose 10 mg/L): 100%
control against adults of Tetranychus cinnabarinus ([1]; dose 40 mg/L): 100%
control against adults of Tetranychus cinnabarinus ([1]; dose 100 mg/L): 100%

CO/C=C(/C(=O)OC)c1ccccc1COc1nc(Nc2ccc(Cl)cc2)nc(C(F)(F)F)c1C [Compound 83]
control against adults of Tetranychus cinnabarinus ([1]; dose 100 mg/L): 100%
